Patent US6491951B1, “Soluble compositions of toremifene” (Orion Corporation, priority 1998, dated 2002)

Assays:
[1] = background statement; cited from earlier work
[2] = Dissolving toremifene base in aqueous compositions with a solubility enhancing acid; format: physicochemical
Excerpt: The compositions of the invention can be prepared e.g. by mixing an amount of a solubility enhancing acid of the invention and purified water, adding thereafter toremifene base or a pharmaceutically acceptable salt thereof and agitating the mixture. pH may be adjusted with a water solution of corresponding acid salt or e.g. sodium hydroxide. The solubility enhancing agent is preferably used in molar excess with respect to toremifene or a pharmaceutically acceptable salt thereof. More preferably, the molar excess is at least about 1.5 fold, and most preferably at least about 2 fold, e.g. from about 2 to about 100 fold, typically from about 2 to about 10 fold.
The experiments also compare the effect of solubility enhancing agents of the invention to other acids such as hydrochloric acid, gluconic acid or citric acid.
Glacial acetic acid and purified water were mixed, toremifene base was added and dissolved. pH of the solution was about 4.
Lactic acid (85% water solution) and purified water were mixed, toremifene base was added and dissolved.
Formic acid and purified water were mixed, toremifene base was added and dissolved.
Toremifene base was dissolved in methanesulfonic acid, then purified water was added.
Lactic acid (85% water solution) and purified water were mixed, toremifene base was added and dissolved. pH was adjusted to about 5 by sodium lactate (50% water solution).
Manufactured as above but pH was adjusted to about 5 with sodium hydroxide.
Hydrochloric acid and purified water were mixed, toremifene base was added. Toremifene was not dissolved.
Sodium gluconate, concentrated hydrochloric acid and purified water were mixed, toremifene base was added. Toremifene was not dissolved.
Toremifene base and 30% water solution of citric acid were mixed together and ethanol was added gradually. Toremifene was not dissolved.

pKa value of toremifene = format: physicochemical
[3] = Water solubility of toremifene and its salts; format: physicochemical; settings: compared with toremifene citrate

Row | Dissolution of toremifene base ([2]; Example 1: 18.4% toremifene base, glacial acetic acid 9.0%, purified water 72.6%, pH about 4) | Toremifene base content of the aqueous solution (by weight of the composition) ([2]; Example 1: glacial acetic acid 9.0%, purified water 72.6%, pH of the solution about 4) [%] | Dissolution of toremifene base ([2]; Example 2: 52.6% toremifene base, lactic acid (85%) 24.0%, purified water 23.4%) | Toremifene base content of the aqueous solution (by weight of the composition) ([2]; Example 2: lactic acid (85%) 24.0%, purified water 23.4%) [%] | Dissolution of toremifene base ([2]; Example 3: 8.2% toremifene base, formic acid 1.6%, purified water 90.2%) | Toremifene base content of the aqueous solution (by weight of the composition) ([2]; Example 3: formic acid 1.6%, purified water 90.2%) [%] | Dissolution of toremifene base ([2]; Example 4: 16.7% toremifene base dissolved in methanesulfonic acid 66.6%, then purified water 16.7% added) | Toremifene base content of the aqueous solution (by weight of the composition) ([2]; Example 4: methanesulfonic acid 66.6%, purified water 16.7%) [%] | Dissolution of toremifene base ([2]; Example 5: 3.7% toremifene base, lactic acid (85%) 1.7%, sodium lactate (50%) 4.4%, purified water 90.2%, pH about 5) | Toremifene base content of the aqueous solution (by weight of the composition) ([2]; Example 5: lactic acid (85%) 1.7%, sodium lactate (50%) 4.4%, purified water 90.2%, pH about 5) [%] | Toremifene base content of the aqueous solution (by weight of the composition) ([2]; Example 6: lactic acid (85%) 18.2%, sodium hydroxide 2 N 27.3%, purified water 18.2%, pH about 5) [%] | Dissolution of toremifene base ([2]; Example 7 (reference): 9.1% toremifene base, hydrochloric acid 1 N 31.8%, purified water 59.1%) | Dissolution of toremifene base ([2]; Example 8 (reference): 1.0% toremifene base, sodium gluconate 1.0%, concentrated hydrochloric acid 1.0%, purified water 97.0%) | Dissolution of toremifene base ([2]; Example 9 (reference): 1.0% toremifene base, citric acid (30%) 10.3%, ethanol 88.7%) | Concentration of toremifene base solutions that can be prepared ([2]; two fold molar excess of lactic acid and purified water) | Concentration of toremifene base solutions that can be prepared ([2]; two fold molar excess of lactic acid, pH adjusted to about 5 with sodium hydroxide) | pKa (pKa value of toremifene) | Molecule | Solubility in water [1] | Solubility in distilled water relative to toremifene citrate [3]
1 | dissolved | 18.4 | dissolved | 52.6 | dissolved | 8.2 | A clear solution was obtained | 16.7 | dissolved | 3.7 | 36.3 | not dissolved | not dissolved | not dissolved | about 50 w-% | about 36 w-% | 8 | CN(C)CCOc1ccc(/C(=C(/CCCl)c2ccccc2)c2ccccc2)cc1 [Toremifene base, toremifene] | poorly soluble in water | –
2 | – | – | – | – | – | – | – | – | – | – | – | – | – | – | – | – | – | toremifene mesylate | – | about 70 times higher
